One test addresses T1, human M3 receptor (Homo sapiens, UniProt P20309).
T1 construct: expressed in transfected cells; host or cells: CHO cells
In words: Test for binding to human M3 receptor. Here is the method:
A solution of cryopreserved CHO cells expressing human M3 receptor was diluted with a buffer (50 mM tris-hydrochloride containing 0.5 mM of EDTA, pH 7.4) to obtain 5.0×10^5 of cells/mL and used as a crude membrane sample.
[N-methyl-^3H]-(−)-Scopolamine methyl chloride (GE Healthcare Japan Corporation) was diluted with 50 mM of tris-hydrochloride containing 0.5 mM of EDTA (pH 7.4), a test substance and 250 μL of the crude membrane sample solution were added to 250 μL of the mixture, and the mixture was incubated at room temperature for 60 minutes. […] The glass fiber filter paper was pretreated with a 0.1% polyethylenimine solution for 4 hours or longer to minimize non-specific binding. The filter collecting membrane components was transferred to a small-size plastic vial containing 3 mL of Pico-Fluor, and the radioactivity was measured with a liquid scintillation counter (Tri-Carb 2900TR or 2300TR; Perkin Elmer).
The effect of binding to the M3 receptor was calculated as the affinity (Ki) of the test substance for the M3 receptor from a 50% binding dose (IC50) and the affinity (Kd) of [N-methyl-^3H]-(−)-Scopolamine methyl chloride for the M3 receptor.

The next test concerns the target T2, substance P receptor (Cavia porcellus, UniProt P30547).
T2 construct: A preparation of a crude lung membrane sample was prepared; from tissue; host or cells: guinea-pig lung (crude membrane sample)
In words: Test for binding to guinea-pig substance P receptor (crude lung membrane sample). The conditions noted are these: crude guinea-pig lung membrane sample, [3H]substance P; Ki from IC50 and Kd; read-out: Ki. The protocol: A preparation of a crude lung membrane sample was prepared, and a test for binding of a test substance to the sample was performed according to the method described in EP0336230A2.
The binding effect of the test substance to a substance P receptor was calculated as an affinity (Ki) of the test substance for the substance P receptor from a 50% binding concentration (IC50) and an affinity (Kd) of [^3H]substance P for the substance P receptor.

Another test concerns muscarine M3 receptor. As to the kind of experiment: Effect of suppressing methacholine-induced airway contraction (in vivo, intratracheal administration). Details: species or system guinea pig. The conditions noted are these: guinea pigs, intratracheal administration 60 minutes before 30 μg/kg i.v. methacholine; AUC of increase in airway pressure over 10 minutes. Here is the method:
Using healthy guinea pigs (body weight, 350 to 550 g; Hartley male guinea pigs), the effect of suppressing airway contraction induced by methacholine, which is a muscarine receptor agonist, was examined by a modified method of Konzett-Roessler (Naunyn-Schmiedebergs Arch. Exp. Pathol. Pharmakol. 195, 71 [1940]) using airway pressure as an indicator.
A tracheal cannula and a venous cannula were attached to a guinea pig anesthetized with pentobarbital (50 mg/mL of solution, 0.40 to 0.50 mL/body, subcutaneous administration). An arterial cannula filled with heparin-containing physiological saline (100 U/mL) was further attached, and blood pressure and heart rate were monitored via an amplifier and an instantaneous heart rate meter. Subsequently, gallamine (20 mg/body, intravenous administration) was administered to terminate spontaneous breathing, and then 10 mL/kg of positive pressure breathing (Ugo-Basile Biological Research Apparatus, Cat. No. 7025) was rapidly performed at 60 times/min. The airway pressure during artificial breathing was detected with a pressure transducer (TP-200T or TP-400T; Nihon Kohden Corporation) attached to a side branch of the tracheal cannula, amplified (AP-601G; Nihon Kohden Corporation), and recorded in a recorder. After the airway pressure, blood pressure, and heart rate were stabilized, 30 μg/kg of methacholine was intravenously administered from the venous cannula to induce airway contraction, and the airway pressure was measured for the following 10 minutes.
A test substance was dissolved in 5% glucose solution, and a 0.5 mL/kg solution was administered intratracheally with an intratracheal administration apparatus (model 1A-1B; Penn-Century, Inc.) 60 minutes before stimulation with methacholine.
The AUC of increase in the airway pressure over 10 minutes after administration of methacholine was measured as the intensity of methacholine-induced airway contraction and calculated as an ID50 value from the inhibition rate based on the value of the control group (a 5% glucose solution intratracheal administration group).

The next test has as its target T3, human NK2 receptor (Homo sapiens, UniProt P21452).
T3 construct: expressed in transfected cells; host or cells: COS cells
T3 sequence (P21452 1-398): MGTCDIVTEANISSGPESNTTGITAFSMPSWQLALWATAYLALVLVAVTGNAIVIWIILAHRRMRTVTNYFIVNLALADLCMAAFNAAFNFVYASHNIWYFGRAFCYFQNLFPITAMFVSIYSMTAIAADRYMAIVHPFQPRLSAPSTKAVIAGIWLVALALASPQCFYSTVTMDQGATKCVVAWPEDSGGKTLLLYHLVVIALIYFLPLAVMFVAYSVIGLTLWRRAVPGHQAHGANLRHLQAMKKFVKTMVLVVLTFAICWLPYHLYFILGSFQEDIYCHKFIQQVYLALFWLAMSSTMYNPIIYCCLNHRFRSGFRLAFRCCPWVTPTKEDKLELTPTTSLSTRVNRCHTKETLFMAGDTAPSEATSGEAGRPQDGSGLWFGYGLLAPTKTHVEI
As to the kind of experiment: Test for binding to human NK2 receptor. Here is the method:
A solution of cryopreserved COS cells expressing human NK2 receptor was diluted with a buffer (50 mM tris-hydrochloride containing 0.04% of bovine serum albumin [BSA], pH 7.4) to obtain a concentration of 5.0×10^5 cells/mL and used as a crude membrane sample.
[^3H]SR 48968 (GE Healthcare Japan Corporation) was diluted with a mixture of 50 mM of tris-hydrochloride (pH 7.4), 6 mM of manganese chloride tetrahydrate, 800 μg/mL of BSA, 8 μg/mL of chymostatin, 8 μg/mL of leupeptin, 80 μg/mL of bacitracin, and 20 μg/mL of phosphoramidon. […] After the reaction, the membrane components were collected on a GF/B glass fiber filter paper (Whatman; Biomedical Research and Development Laboratories, Inc.) with an automated filtration system (Brandel; Biomedical Research and Development Laboratories, Inc.). The glass fiber filter paper was pretreated with a 0.1% polyethylenimine solution for 4 hours or longer to minimize non-specific binding. The filter collecting the membrane components was transferred to a small-size plastic vial containing 3 mL of Pico-Fluor, and the radioactivity was measured with a liquid scintillation counter (Tri-Carb 2900TR or 2300TR; Perkin Elmer).
The effect of binding to the NK2 receptor was calculated as the affinity (Ki) of the test substance for the NK2 receptor from a 50% binding dose (IC50) and the affinity (Kd) of [^3H]SR 48968 for the NK2 receptor.

Setting [1] is: CHO cells expressing human M3 receptor, [N-methyl-3H]-(-)-Scopolamine methyl chloride 0.5 nM, Ki from IC50 and Kd, read-out: Ki.
Where [2] appears, read: COS cells expressing human NK2 receptor, [3H]SR 48968 1 nM, Ki from IC50 and Kd, read-out: Ki.

Structures can show the parent of a compound that is named as a salt. Where two headings read alike, the source gives them in different places.

A word on the Ki: it is a measure of affinity in units of concentration, obtained from inhibition or displacement.

T2 sequence (P30547 whole entry): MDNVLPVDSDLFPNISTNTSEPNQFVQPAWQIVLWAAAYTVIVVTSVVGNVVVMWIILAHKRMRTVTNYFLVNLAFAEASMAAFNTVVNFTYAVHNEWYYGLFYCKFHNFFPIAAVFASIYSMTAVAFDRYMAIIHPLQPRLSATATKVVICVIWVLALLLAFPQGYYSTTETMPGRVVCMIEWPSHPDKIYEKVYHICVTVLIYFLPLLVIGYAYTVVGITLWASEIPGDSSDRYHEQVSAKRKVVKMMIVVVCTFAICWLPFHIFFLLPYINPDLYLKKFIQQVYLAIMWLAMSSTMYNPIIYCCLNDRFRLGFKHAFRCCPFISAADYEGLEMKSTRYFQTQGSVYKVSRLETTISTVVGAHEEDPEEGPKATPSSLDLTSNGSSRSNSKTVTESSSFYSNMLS
T1 sequence (P20309 whole entry): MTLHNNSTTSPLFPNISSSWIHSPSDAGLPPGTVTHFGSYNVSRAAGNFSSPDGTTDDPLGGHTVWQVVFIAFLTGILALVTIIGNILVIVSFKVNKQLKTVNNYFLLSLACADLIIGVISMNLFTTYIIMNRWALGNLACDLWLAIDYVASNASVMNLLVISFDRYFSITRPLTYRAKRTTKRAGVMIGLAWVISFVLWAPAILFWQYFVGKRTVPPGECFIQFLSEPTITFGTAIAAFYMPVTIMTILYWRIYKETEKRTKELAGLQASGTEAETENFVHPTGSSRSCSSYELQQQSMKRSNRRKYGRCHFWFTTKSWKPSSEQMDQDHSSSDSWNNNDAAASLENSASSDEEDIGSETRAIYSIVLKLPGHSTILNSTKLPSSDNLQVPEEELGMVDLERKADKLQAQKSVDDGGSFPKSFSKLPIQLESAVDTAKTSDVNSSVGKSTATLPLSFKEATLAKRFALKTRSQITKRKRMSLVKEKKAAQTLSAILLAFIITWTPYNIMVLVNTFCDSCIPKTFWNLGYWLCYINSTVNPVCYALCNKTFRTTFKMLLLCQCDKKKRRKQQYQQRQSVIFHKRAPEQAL

On to `CN(CCN1CCC(OC(=O)Nc2ccccc2-c2ccccc2)CC1)C(=O)CCCCCNc1nc(CC(=O)N(C)CCCN(C)C(=O)CO[C@H]2Cc3ccccc3C23CCN(CC[C@@]2(c4ccc(F)cc4)CN(C(=O)c4cc(C(F)(F)F)cc(C(F)(F)F)c4)CO2)CC3)cs1` [Example 88, 1-{2-[{6-[(4-{2-[{3-[({[(2S)-1′-{2-[(5R)-3-[3,5-Bis(trifluoromethyl)benzoyl]-5-(4-fluorophenyl)-1,3-oxazolidin-5-yl]ethyl}-2,3-dihydrospiro[indene-1,4′-piperidin]-2-yl]oxy}acetyl)(methyl)amino]propyl}(methyl)amino]-2-oxoethyl}-1,3-thiazol-2-yl)amino]hexanoyl}(methyl)amino]ethyl}piperidin-4-yl biphenyl-2-ylcarbamate trihydrochloride], for which the inhibitory constant (Ki) worked out at 0.31 nM at human M3 receptor, 1.1 nM at substance P receptor and 0.72 nM on human NK2 receptor. In the test with muscarine M3 receptor, this molecule came in with an ID50 of 6.0 µg/kg.

As to `CN(CCN1CCC(OC(=O)Nc2ccccc2-c2ccccc2)CC1)C(=O)CCCCCNc1ccc(C(=O)N(C)CCCN(C)C(=O)CO[C@H]2Cc3ccccc3C23CCN(CC[C@@]2(c4ccc(F)cc4)CN(C(=O)c4cc(C(F)(F)F)cc(C(F)(F)F)c4)CO2)CC3)cc1F` [Example 13, 1-(2-{[6-({4-[{3-[({[(2S)-1′-{2-[(5R)-3-[3,5-Bis(trifluoromethyl)benzoyl]-5-(4-fluorophenyl)-1,3-oxazolidin-5-yl]ethyl}-2,3-dihydrospiro[indene-1,4′-piperidin]-2-yl]oxy}acetyl)(methyl)amino]propyl}(methyl)carbamoyl]-2-fluorophenyl}amino)hexanoyl](methyl)amino}ethyl)piperidin-4-yl biphenyl-2-ylcarbamate trihydrochloride], the inhibition constant Ki at human M3 receptor stood at 1.2 nM; at substance P receptor, 2.6 nM; at human NK2 receptor, 0.65 nM.

For the molecule `CN(CCCCCC(=O)N(C)CCN1CCC(OC(=O)Nc2ccccc2-c2ccccc2)CC1)Cc1ccc(C(=O)N(C)CCCN(C)C(=O)CO[C@H]2Cc3ccccc3C23CCN(CC[C@@]2(c4ccc(F)cc4)CN(C(=O)c4cc(C(F)(F)F)cc(C(F)(F)F)c4)CO2)CC3)nc1` [Example 5, 1-{2-[{6-[({6-[{3-[({[(2S)-1′-{2-[(5R)-3-[3,5-Bis(trifluoromethyl)benzoyl]-5-(4-fluorophenyl)-1,3-oxazolidin-5-yl]ethyl}-2,3-dihydrospiro[indene-1,4′-piperidin]-2-yl]oxy}acetyl)(methyl)amino]propyl}(methyl)carbamoyl]pyridin-3-yl}methyl)(methyl)amino]hexanoyl}(methyl)amino]ethyl}piperidin-4-yl biphenyl-2-ylcarbamate], the inhibitory constant (Ki) on human M3 receptor (setting [1]) was 0.69 nM; on substance P receptor it was 1.5 nM; at human NK2 receptor (setting [2]), 0.48 nM.

Take `Cc1cc(NCCCCCC(=O)N(C)CCN2CCC(OC(=O)Nc3ccccc3-c3ccccc3)CC2)sc1C(=O)N(C)CCN(C)C(=O)CO[C@H]1Cc2ccccc2C12CCN(CC[C@@]1(c3ccc(F)cc3)CN(C(=O)c3cc(C(F)(F)F)cc(C(F)(F)F)c3)CO1)CC2` [Example 89, 1-(2-{[6-({5-[{2-[({[(2S)-1′-{2-[(5R)-3-[3,5-Bis(trifluoromethyl)benzoyl]-5-(4-fluorophenyl)-1,3-oxazolidin-5-yl]ethyl}-2,3-dihydrospiro[indene-1,4′-piperidin]-2-yl]oxy}acetyl)(methyl)amino]ethyl}(methyl)carbamoyl]-4-methyl-2-thienyl}amino)hexanoyl](methyl)amino}ethyl)piperidin-4-yl biphenyl-2-ylcarbamate]: the Ki on human M3 receptor (setting [1]) stood at 1.2 nM; on substance P receptor it was 0.74 nM; on human NK2 receptor (setting [2]) it was 0.75 nM.

With `CN(CCN1CCC(OC(=O)Nc2ccccc2-c2ccccc2)CC1)C(=O)CCCC1CCN(c2ccc(C(=O)N(C)CCCN(C)C(=O)CO[C@H]3Cc4ccccc4C34CCN(CC[C@@]3(c5ccc(F)cc5)CN(C(=O)c5cc(C(F)(F)F)cc(C(F)(F)F)c5)CO3)CC4)cc2)CC1` [Example 66, 1-(2-{[4-(1-{4-[{3-[({[(2S)-1′-{2-[(5R)-3-[3,5-Bis(trifluoromethyl)benzoyl]-5-(4-fluorophenyl)-1,3-oxazolidin-5-yl]ethyl}-2,3-dihydrospiro[indene-1,4′-piperidin]-2-yl]oxy}acetyl)(methyl)amino]propyl}methyl)carbamoyl]phenyl}piperidin-4-yl)butanoyl](methyl)amino}ethyl)piperidin-4-yl biphenyl-2-ylcarbamate trihydrochloride], the Ki on human M3 receptor (setting [1]) was found to be 1.5 nM; on substance P receptor, 2.1 nM; on human NK2 receptor (setting [2]), 0.86 nM.

`Cc1nc(N(C)CCCCCC(=O)N(C)CCN2CCC(OC(=O)Nc3ccccc3-c3ccccc3)CC2)sc1C(=O)N(C)CCCN(C)C(=O)CO[C@H]1Cc2ccccc2C12CCN(CC[C@@]1(c3ccc(F)cc3)CN(C(=O)c3cc(C(F)(F)F)cc(C(F)(F)F)c3)CO1)CC2` [Example 106, 1-{2-[{6-[{5-[{3-[({[(2S)-1′-{2-[(5R)-3-[3,5-Bis(trifluoromethyl)benzoyl]-5-(4-fluorophenyl)-1,3-oxazolidin-5-yl]ethyl}-2,3-dihydrospiro[indene-1,4′-piperidin]-2-yl]oxy}acetyl)(methyl)amino]propyl}(methyl)carbamoyl]-4-methyl-1,3-thiazol-2-yl}(methyl)amino]hexanoyl}(methyl)amino]ethyl}piperidin-4-yl biphenyl-2-ylcarbamate trihydrochloride]: the results for the Ki at human M3 receptor, at substance P receptor and at human NK2 receptor were 1.3 nM, 3.1 nM and 0.34 nM, respectively.
